Experimental data taken from US20240246960A1 (adMare Therapeutics Society, priority 2021, published 2024).
Read-outs that look alike come from different tables or passages of the source.

Key:
[1] = target: T1, pDNA-PK ser2056 induction in FaDU spheroids (Homo sapiens, UniProt P78527); experiment: Multicellular tumour spheroid + radiation, pDNA-PK inhibition, FaDU; assay type: cell-based; settings: 20 Gy
T1 construct: host or cells: FaDu
How it was run: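 HCT116 or FaDU spheroids (~0.5 mm) in MEM/10% FBS/10 mM glucose, 20% O2, 5% CO2, 37 °C, stirred, irradiated with 20 Gy alongside compound serially diluted from 10 μM to 3.5 nM. Cryosections taken 2 h post-radiation, immunostained for pDNA-PK ser2056; EC50 is concentration halving pDNA-PK induction. Survival endpoint: 8 Gy, dissociation at 3 h, colony formation.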

[2] = tested on: HCT116 spheroids; experiment: Spheroid + radiation colony forming cell survival assay (SF), HCT116; assay type: cell-based; settings: 8 Gy
Procedure: Multicellular tumour spheroids determination of compound inhibition of pDNA-PK induction following radiation. Tumour spheroids were grown to approximately 0.5 mm in diameter and irradiated with 20 Gy in combination with inhibitor test compounds to determine their potency. Inhibitor concentration for 50% reduction in pDNA-PK induction (IC50) was determined via immunohistochemical staining in spheroid cryosections taken 2 hours following radiation. For cell survival endpoint 8 Gy radiation was used and 3 hours following radiation spheroids were dissociated, counted and plated for colony forming endpoint.
Spheroid+radiation colony forming cell survival assay (SF). Radiation 8 Gy. Drug: serial dilution 5 μM down to 10 nM (12 wells×2 repeat). Spheroids: 5-10 spheroids per well ([…]). HCT116. 5% O2 and 5% CO2. 96 well pate format for assay. Protocol: pre incubate 1 hour with drug, irradiate 8 Gy, post incubate 3 hrs with drug, dissociate spheroids and count cells and plate for colony forming assay. Endpoint: wait 4-7 days and count colonies. Analysis: determine EC50 concentration that increase cell kill by 50% over radiation alone.
Multicellular tumour spheroids were used to determine potency of test compounds in a 3D tissue environment using inhibition of pDNA-PK induction following radiation or cell survival as the endpoint. For the pDNA-PK endpoint HCT116 or FaDU tumour spheroids were grown to approximately 0.5 mm in diameter and irradiated with 20 Gy in combination with inhibitor test compounds to determine their potency. Experiments were carried out in 96 well plates containing 0.7 mls of MEM media containing 10% FBS and 10 mM glucose under 20% O2 & 5% CO2 at 37° C. Following dilution of compounds 1:1000 from DMSO stocks, compounds were serially diluted from 10 μM down to 3.5 nM and 5-10 spheroids added. 96 well plates were constantly stirred to avoid spheroids settling during the course of the experiment. The inhibitor concentration for 50% reduction in pDNA-PK induction (EC50) was determined via immunohistochemical staining in spheroid cryosections taken 2 hours following radiation using anti-pDNA-PK (ser 2056) and fixed immediately in formalin following sectioning. For cell survival endpoint 8 Gy radiation was used and, 3 hours following radiation, spheroids were dissociated, counted and plated for colony forming endpoint. Data presented in the table compound potency as EC50 [μM].

[3] = target: T2, pDNA-PK ser2056 induction in HCT116 spheroids (Homo sapiens, UniProt P78527); experiment: Multicellular tumour spheroid + radiation, pDNA-PK inhibition, HCT116; assay type: cell-based; settings: 20 Gy
T2 construct: endogenous in cells; host or cells: HCT116 multicellular tumour spheroids
How it was run: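 EC50 (μM) is concentration halving radiation-induced pDNA-PK ser2056, scored by fluorescent immunostaining of cryosections 2 h after 20 Gy. HCT116 tumour spheroids (~0.5 mm, stirred, 20% O2/5% CO2, 37 °C) exposed to serial dilutions from 10 or 5 μM to 3.5 nM starting 1 h before irradiation.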

[4] = Hepatocyte stability assay, human hepatocytes; assay type: in vitro ADME; settings: for hepatocyte CLint at 1 uM: both sexes, human, cryopreserved hepatocytes, pH 7.3, 0.7 million cells per mL, 1 uM compound
How it was run: (§1)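 Pooled cryopreserved hepatocytes (male CD-1 mouse, or mixed-gender human donors; ≥10 each) at 0.7 million viable cells/mL in Krebs-Henseleit buffer pH 7.3, with 1 uM compound (≤0.01% DMSO). Incubated up to 2 h at 37 °C/5% CO2, quenched with acetonitrile; parent compound followed by HPLC-MS/MS peak area.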

[5] = Microsomal stability assay, mouse liver microsomes; settings: for microsomal CLint at 0.1 uM: male, CD-1, mouse, liver microsomes, pH 7.4, Microsomal Stability Mouse Clint, 0.1 mg/mL microsomes, 0.1 uM compound
[6] = Hepatocyte stability assay, mouse hepatocytes; assay type: in vitro ADME; settings: for hepatocyte CLint at 1 uM: male, CD-1, mouse, cryopreserved hepatocytes, pH 7.3, 0.7 million cells per mL, 1 uM compound
How it was run: as §1

[7] = Example 8, spheroid, read-out: Cell line: FaDU Immunohistochemical endpoint pDNA-PK inhibition EC50
[8] = Example 9 Study 2, 20% O2, read-out: Spheroid Cell line: FaDU Immunohistochemical endpoint pDNA-PK inhibition EC50
[9] = Example 8, spheroid, read-out: Cell line: HCT116 Colony forming endpoint Surviving Fraction EC50
[10] = Example 9 Study 2, read-out: Spheroid Cell line: HCT116 Colony forming endpoint Surviving Fraction EC50
[11] = Example 7, spheroid, cell line HCT115 [sic], 20% O2, read-out: EC50 (pDNA-PK inhibition, immunohistochemical endpoint)
[12] = Example 8, spheroid, read-out: Cell line: HCT116 Immunohistochemical endpoint pDNA-PK inhibition EC50
[13] = Example 9 Study 2, 20% O2, read-out: Spheroid Cell line: HCT116 Immunohistochemical endpoint pDNA-PK inhibition EC50

For `O=C(N[C@H]1CC[C@@H](Oc2nc(N3CCOCC3)cc3ncccc23)CC1)c1ncccn1` [Compound 123, N-((1s,4s)-4-((7-Morpholino-1,6-naphthyridin-5-yl)oxy)cyclohexyl)pyrimidine-2-carboxamide], the EC50 [1, 7] was 10 to 500 nM, the EC50 [1, 8] was 10 to 500 nM and the EC50 [2, 9] was 10 to 500 nM. It also gave an EC50 [2, 10] of 10 to 500 nM, an EC50 [3, 11] of 500 to 1000 nM and an EC50 [3, 12] of 500 to 1000 nM. For the same molecule, the EC50 [3, 13] was 500 to 1000 nM, the “Hepatocyte Stability (human) % rem. 120 min” value [4] was “H (% remaining = 75-100%)” and the hepatocyte CLint at 1 uM [4] was less than 8.2 µL/min/1e6 cells. The “Microsomal Stability (mouse) % rem. 60 min” value [5] was “G (% remaining = 50-75%)”, the microsomal CLint at 0.1 uM [5] was less than 116 µL/min/mg and the “Hepatocyte Stability (mouse) % rem. 120 min” value [6] was “G (% remaining = 50-75%)”. For the same molecule, the hepatocyte CLint at 1 uM [6] was less than 8.2 µL/min/1e6 cells.

`O=C(N[C@H]1CC[C@@H](Oc2nc(N3CCOCC3)cc3ncccc23)CC1)c1cncnc1` [Compound 122, N-((1s,4s)-4-((7-Morpholino-1,6-naphthyridin-5-yl)oxy)cyclohexyl)pyrimidine-5-carboxamide] showed an EC50 [1, 7] of 500 to 1000 nM, an EC50 [1, 8] of 500 to 1000 nM and an EC50 [2, 9] of 500 to 1000 nM. For the same molecule, the EC50 [2, 10] was 500 to 1000 nM, the EC50 [3, 11] was 1000 to 10000 nM and the EC50 [3, 12] was 1000 to 10000 nM. The EC50 [3, 13] was 1000 to 10000 nM, the “Microsomal Stability (mouse) % rem. 60 min” value [5] was “G (% remaining = 50-75%)” and the microsomal CLint at 0.1 uM [5] was greater than 116 µL/min/mg. For the same molecule, the “Hepatocyte Stability (mouse) % rem. 120 min” value [6] was “E (% remaining = 0-25%)” and the hepatocyte CLint at 1 uM [6] was greater than 8.2 µL/min/1e6 cells.

With `c1cnc(N[C@H]2CC[C@@H](Oc3nc(N4CCOCC4)cc4ncccc34)CC2)nc1` [Compound 20a, N-((1s,4s)-4-((7-Morpholino-1,6-naphthyridin-5-yl)oxy)cyclohexyl)pyrimidin-2-amine] the EC50 [1, 7] was 500 to 1000 nM, the EC50 [1, 8] was 500 to 1000 nM and the EC50 [2, 9] was 10 to 500 nM. The EC50 [2, 10] was 10 to 500 nM, the EC50 [3, 11] was 500 to 1000 nM and the EC50 [3, 12] was 500 to 1000 nM. For the same molecule, the EC50 [3, 13] was 500 to 1000 nM, the “Hepatocyte Stability (human) % rem. 120 min” value [4] was “F (% remaining = 25-50%)” and the hepatocyte CLint at 1 uM [4] was greater than 8.2 µL/min/1e6 cells. The “Microsomal Stability (mouse) % rem. 60 min” value [5] was “E (% remaining = 0-25%)”, the microsomal CLint at 0.1 uM [5] was greater than 116 µL/min/mg and the “Hepatocyte Stability (mouse) % rem. 120 min” value [6] was “F (% remaining = 25-50%)”. The hepatocyte CLint at 1 uM [6] was greater than 8.2 µL/min/1e6 cells.

In the case of `FC(F)(F)c1cnc(N[C@H]2CC[C@@H](Oc3nc(N4CCOCC4)cc4ncccc34)CC2)nc1` [Compound 34, N-((1s,4s)-4-((7-Morpholino-1,6-naphthyridin-5-yl)oxy)cyclohexyl)-5-(trifluoromethyl)pyrimidin-2-amine], the EC50 [1, 7] is reported as 1000 to 10000 nM, the EC50 [1, 8] is reported as 1000 to 10000 nM and the EC50 [2, 9] is reported as 1000 to 10000 nM. It also gave an EC50 [2, 10] of 1000 to 10000 nM, an EC50 [3, 11] of 1000 to 10000 nM and an EC50 [3, 12] of 1000 to 10000 nM. For the same molecule, the EC50 [3, 13] was 1000 to 10000 nM, the “Microsomal Stability (mouse) % rem. 60 min” value [5] was “E (% remaining = 0-25%)” and the microsomal CLint at 0.1 uM [5] was greater than 116 µL/min/mg.
